Test results: patent publication US11167015B2, “Arginine and its use as a T cell modulator” (INSTITUTE FOR RESEARCH IN BIOMEDICINE, priority 2016, dated 2021)

How the values were obtained:
[1] = test system: human naïve CD4+ T cells; experiment: Nitric oxide formation measured using DAF-FM diacetate; assay type: cell-based; settings: L-arginine-supplemented medium vs normal medium
Method: FIG. 9. Impact of L-citrulline on metabolism, Related to FIG. 3. (A) Human naïve CD4^+ T cells were activated in normal medium or in L-Arg medium. Nitric oxide formation was measured using DAF-FM diacetate at different time points. (B) T cells were activated in control medium (Ctrl, containing 1 mM L-arginine), or in medium supplemented with 3 mM L-arginine (L-Arg) or 3 mM L-citrulline (L-Cit) and harvested at different time points. […] Shown are only metabolites with a log 2 fold change >1 and an adjusted p value of <0.05. n=6 from one donor. Log 2 fold change between 0 and >+2 for L-Orn, L-Arg and L-Cit exemplarily indicated as “high”.

[2] = test system: T cell proteome; experiment: Limited proteolysis and mass spectrometry (structural changes); assay type: binding, human
[3] = test system: Naïve CD8+ OT-I T cells; experiment: Tcm-like phenotype and IFN-γ of OT-I T cells after in vitro priming; assay type: cell-based, mouse
Description: FIG. 7. CD8+ T cells with increased L-arginine levels display improved anti-tumor activity in vivo. (A) Survival of activated mouse CD8+OT-I T cells (4 d) after IL-2 withdrawal. Data points represent the difference between the percentage of living T cells from cultures performed in L-Arg medium or Ctrl medium; n=11. (B) CD90.1+CD45.1/2+ and CD90.1+CD45.1+ naïve CD8+ OT-I T cells were activated for 4 days in Ctrl medium or L-Arg medium, respectively. Equal numbers of the congenically marked activated OT-I cells were co-transferred into Cd3e−/− mouse and the number of living T cells was measured in pooled spleen and lymph nodes at the indicated time points; n=3 at each time point. (C) Naïve CD8+ OT-I T cells were activated with CD3+CD28 antibodies in L-Arg medium or control (Ctrl) medium. Five days after activation, the percentage of Tcm-like cells (CD44hi, CD62L+) was measured by flow cytometry; n=15. (D) Naïve OT-I CD8+ T cells were activated in L-Arg medium or Ctrl medium and IFN-γ was quantified in culture supernatants after 5 days; n=15. (E) Same as in (D) but T cells were re-activated on day 5 day with PMA/Ionomycin; n=15. (F, G) B16.OVA melanoma cells were injected into C57BL/6 mice and tumors were allowed to grow for 10 days. Naïve OT-I CD8+ T cells were activated in vitro in L-Arg medium or Ctrl medium and injected into tumor bearing mice. Tumor burden (F) and survival (G) were assessed over time. Data are representative of three independent experiments, each performed with 7-9 mice per group. (H) B16.OVA melanoma cells were injected into C57BL/6 mice and tumors were allowed to grow for 6 clays. At day 6, naïve CD8+ OT-I T cells were transferred into tumor bearing mice and at day 7 mice were immunized with OVA peptide. Starting one day before the T cell transfer, PBS or L-arginine (1.5 mg/g body weight) was orally administered daily; n=19 from three independent experiments. Bars represent the s.e.m. *p<0.05, **p<0.01, ***p<0.001, ****p<0.0001 (Student's t-test). In (G) *p<0.05 as determined by log-rank test comparison between curves. […]

[4] = test system: human naïve CD4+ T cells; experiment: kinetic metabolome analysis of activated T cells; assay type: cell-based; settings: L-arginine in medium increased 4-fold (1 mM standard), all time points
Method: Naïve CD4^+ T cells were either analyzed directly after isolation or at different time points after activation with CD3 and CD28 antibodies. Cells were washed twice in 96-well plates with 75 mM ammonium carbonate at pH 7.4 and snap frozen in liquid nitrogen. Metabolites were extracted three times with hot (>70° C.) 70% ethanol. Extracts were analyzed by flow injection—time of flight mass spectrometry on an Agilent 6550 QTOF instrument operated in the negative mode, as described previously (Fuhrer et al., 2011). Typically 5,000-12,000 ions with distinct mass-to-charge (m/z) ratio could be identified in each batch of samples. Ions were putatively annotated by matching their measured mass to that of the compounds listed by the KEGG database for Homo sapiens, allowing a tolerance of 0.001 Da. Only deprotonated ions (without adducts) were considered in the analysis. In case of multiple matching, such as in the case of structural isomers, all candidates were retained.

[5] = test system: 72 h-activated T cells; experiment: Glucose consumption assay; assay type: cell-based, human; settings: L-arginine supplementation, 24 h in fresh medium
Method: FIG. 3. L-arginine globally influences metabolism of activated human T cells. […] Shown are only metabolites with a Log 2 fc>1 and an adjusted p value of <0.05; n=12 from two donors. Log 2 fold change between 0 and >+2 for L-Orn and L-Arg exemplarily indicated as “high”. (B) Differential analysis of the glycolytic pathway between naïve CD4^+ T cells cultured in L-Arg medium or Ctrl medium, 96 h after activation. Log 2 fold changes of proteins and metabolites are color-coded. […] 3-P-Glycerate and 2-P-Glycerate could not be distinguished as they have the same mass. (C) 72 h-activated T cells were plated in fresh medium and glucose consumption was determined enzymatically after 24 h; n=9 from three donors. (D) Seahorse experiment performed with activated (96 h) T cells from one donor. Oligomycin was injected after 56 min, FCCP after 96 min, and antimycin (to inhibit the respiratory chain) after 136 min. Data are representative of 5 independent experiments with different donors. (E,F) Relative oxygen consumption rate (OCR) (E) and relative spare respiratory capacity (SRC) (F) of activated (96 h) T cells; n=12 from three donors. ****p<0.0001 (Student's t-test).
The amount of glucose in media was determined using the Glucose (GO) Assay Kit from Sigma. Consumption was calculated as the difference between glucose content in reference medium (co-incubated medium without cells) and cell supernatants.

[6] = test system: B16.OVA melanoma; experiment: Tumor experiment: in vivo priming of T cells, oral L-arginine; parameters: species or system C57BL/6 mice; settings: mice fed with L-arginine 1.5 mg/g body weight daily vs PBS
Method: B16-OVA melanoma cells were cultured and injected into Wt C57BL/6 mice as described above. Five clays post injection, when tumors were very small, mice were γ-irradiated (5 Gy) and 24 hours later they received 4×10^5 OT-I cells intravenously (i.v.). The clay after mice were immunized intraperitoneally (i.p.) with […] peptide (OVA257-264) in Inject Alum Adjuvant (Thermo Fisher Scientific). L-Arg (1.5 g/Kg body weight) or PBS, as control, was daily orally administrated, starting one clay before T cell transfer and until the end of the experiment. The size of tumors was measured in a blinded fashion using calipers.

Structure (SMILES): N=C(N)NCCC[C@H](N)C(=O)O [L-arginine]
- nitric oxide [1]: did not increase
- protein domains affected by structural changes ([2]; 1 mM L-arginine): affect the PHD domain of BAZ1B and the AT-hook DNA-binding domain of PSIP1
- number of proteins (out of 5,856 identified) with structural change exclusively in response to L-arginine ([2]; 1 mM, not affected by D-arginine or L-ornithine, six donors): 20
- Tcm-like state (CD44hi, CD62L+) ([3]; five days after activation in L-Arg medium): maintained a Tcm-like state
- IFN-γ production upon reactivation ([3]; re-activated on day 5 with PMA/Ionomycin): even more IFN-γ than controls
- IFN-γ secretion after in vitro priming ([3]; supernatants after 5 days): secreted less IFN-γ than controls
- Intracellular arginine levels compared to controls [4]: 1.5-2.5 fold
- Intracellular ornithine levels compared to controls [4]: 1.5-2.5 fold
- glucose consumption [5]: consumed less glucose
- anti-tumor response of OT-I T cells primed in vivo [6]: superior in mediating an anti-tumor response
